For 13 molecules, EC50 results are on record in patent US11352371B2, “Thienopyrimidine derivatives as ACC inhibitors and uses thereof” (Gilead Sciences, Inc., priority 2019, dated 2022).

pEC50: −log10 of the molar value.

One assay concerns HepG2 cells. Put plainly: In vitro De Novo Lipogenesis (DNL) assay, 13C-acetate incorporation into palmitic acid. The format is cell-based. The settings on record: 1 hour preincubation, 24 hours with 10 mM 13C-labeled acetate. How it is done:
De Novo Lipogenesis (DNL) was measured in vitro in HepG2 cells by quantifying the incorporation of ^13C-labeled acetate into palmitic acid.
HepG2 cells were plated in growth medium (DMEM (Corning cat #15-018-CM) supplemented with 10% FBS (HyClone cat #SH30071-03), and 1× penicillin, streptomycin, glutamine (Corning cat #30-009-CI)) at 10,000 cells/well in a 384-well cell culture-treated plate (Greiner cat #781091). The cells were then incubated overnight at 37° C., 5% CO2. The next day, the cells were washed twice with sterile DPBS (Corning cat #21-031-CM) and the culture medium was changed to fresh growth medium. The compounds of interest were dosed to cells, followed by a 1 hour incubation at 37° C., 5% CO2. ^13C-labeled acetate (Sigma-Aldrich cat #279315-1G) was added to the culture medium at a concentration of 10 mM and the cells were incubated for 24 hours at 37° C., 5% CO2.
In order to analyze the lipid content of the HepG2 cells, the culture medium was removed and the cells were lysed by adding 30 μL of 0.1 M NaOH. After 5 minutes of incubation at room temperature, 15 μL of cell lysate was transferred to a 384-well deep-well plate (Sigma-Aldrich cat #BR701355-48EA) containing 15 μL of 7.3% KOH in ethanol and mixed. This plate was sealed and incubated at 70° C. for 4 hours to hydrolyze the lipids to free fatty acids. 100 μL of acetonitrile was then added and the plate was spun at 3,700 g for 20 minutes to separate the organic and aqueous phases. 50 μL from the top (organic) phase was transferred to a new 384-well plate (NUNC cat #264573) and the samples were analyzed by mass spectrometry using a RapidFire coupled to a QTOF mass spectrometer. The sum of the area under curve (AUC) for palmitate containing 3 to 7 ^13C was normalized with the AUC of oleate and plotted against compound concentration to determine the potency of ACC inhibitors. […]
As a reminder, the pEC50 is the negative decadic logarithm of the EC50, by convention in mol/L. Low readings indicate a large EC50, high ones a small EC50. Consider `COc1ccccc1[C@H](Cn1c(=O)n(C(C)(C)C(=O)NS(=O)(=O)C2CC2)c(=O)c2c(C)c(-c3ncco3)sc21)O[C@@H]1C[C@H]2CC[C@@H](C1)O2` [Example 4, 2-(1-((R)-2-(((1R,3s,5S)-8-oxabicyclo[3.2.1]octan-3-yl)oxy)-2-(2-methoxyphenyl)ethyl)-5-methyl-6-(oxazol-2-yl)-2,4-dioxo-1,4-dihydrothieno[2,3-d]pyrimidin-3 (2H)-yl)-N-(cyclopropylsulfonyl)-2-methylpropanamide], for which the pEC50 is 8.77.

Staying with this assay, now noted: Homo sapiens, 1 hour preincubation, 24 hours with 10 mM 13C-labeled acetate.
On to `Cc1c(-c2ncco2)sc2c1c(=O)n(C(C)(C)C(=O)NS(=O)(=O)C1CC1)c(=O)n2C[C@H](O[C@@H]1C[C@H]2CC[C@@H](C1)O2)c1cc(F)ccc1OC(F)F` [Example 7, 2-(1-((R)-2-(((1R,3s,5S)-8-oxabicyclo[3.2.1]octan-3-yl)oxy)-2-(2-(difluoromethoxy)-5-fluorophenyl)ethyl)-5-methyl-6-(oxazol-2-yl)-2,4-dioxo-1,4-dihydrothieno[2,3-d]pyrimidin-3(2H)-yl)-N-(cyclopropylsulfonyl)-2-methylpropanamide], for which the pEC50 is 8.12.

Regarding `COc1ccc(F)cc1[C@H](Cn1c(=O)n(C(C)(C)C(=O)NS(=O)(=O)C2(C)CC2)c(=O)c2c(C)c(-c3ncco3)sc21)O[C@@H]1C[C@H]2CC[C@@H](C1)O2` [Example 5, 2-(1-((R)-2-(((1R,3s,5S)-8-oxabicyclo[3.2.1]octan-3-yl)oxy)-2-(5-fluoro-2-methoxyphenyl)ethyl)-5-methyl-6-(oxazol-2-yl)-2,4-dioxo-1,4-dihydrothieno[2,3-d]pyrimidin-3(2H)-yl)-2-methyl-N-((1-methylcyclopropyl)sulfonyl)propanamide], the pEC50 was 8.54.

The molecule `Cc1c(-n2nccn2)sc2c1c(=O)n(C1(C(=O)NS(=O)(=O)C3(C)CC3)CC1)c(=O)n2C[C@H](O[C@@H]1C[C@H]2CC[C@@H](C1)O2)c1ccccc1OC(F)F` [Example 26, 1-(1-((R)-2-(((1R,3s,5S)-8-oxabicyclo[3.2.1]octan-3-yl)oxy)-2-(2-(difluoromethoxy)phenyl)ethyl)-5-methyl-2,4-dioxo-6-(2H-1,2,3-triazol-2-yl)-1,4-dihydrothieno[2,3-d]pyrimidin-3(2H)-yl)-N-((1-methylcyclopropyl)sulfonyl)cyclopropane-1-carboxamide] had a pEC50 of 7.61.

The molecule `Cc1c(-c2ncco2)sc2c1c(=O)n([C@@H](C)C(=O)NS(=O)(=O)C1(C)CC1)c(=O)n2C[C@H](O[C@@H]1C[C@H]2CC[C@@H](C1)O2)c1cc(F)ccc1OC(F)F` [Example 15, (S)-2-(1-((R)-2-(((1R,3s,5S)-8-oxabicyclo[3.2.1]octan-3-yl)oxy)-2-(2-(difluoromethoxy)-5-fluorophenyl)ethyl)-5-methyl-6-(oxazol-2-yl)-2,4-dioxo-1,4-dihydrothieno[2,3-d]pyrimidin-3(2H)-yl)-N-((1-methylcyclopropyl)sulfonyl)propanamide] gave a pEC50 of 5.70.

In the case of `Cc1c(-n2nccn2)sc2c1c(=O)n(C1(C(=O)NS(=O)(=O)C3(C)CC3)CC1)c(=O)n2C[C@H](O[C@H]1C[C@H]2CC[C@@H](C1)O2)c1ccccc1OC(F)F` [Example 23, 1-(1-((R)-2-(((1R,3r,5S)-8-oxabicyclo[3.2.1]octan-3-yl)oxy)-2-(2-(difluoromethoxy)phenyl)ethyl)-5-methyl-2,4-dioxo-6-(2H-1,2,3-triazol-2-yl)-1,4-dihydrothieno[2,3-d]pyrimidin-3(2H)-yl)-N-((1-methylcyclopropyl)sulfonyl)cyclopropane-1-carboxamide], the pEC50 was 6.57.

Take `COc1ccccc1[C@H](Cn1c(=O)n(C2(C(=O)NS(=O)(=O)C3(C)CC3)CC2)c(=O)c2c(C)c(-n3nccn3)sc21)O[C@@H]1C[C@H]2CC[C@@H](C1)O2` [Example 25, 1-(1-((R)-2-(((1R,3s,5S)-8-oxabicyclo[3.2.1]octan-3-yl)oxy)-2-(2-methoxyphenyl)ethyl)-5-methyl-2,4-dioxo-6-(2H-1,2,3-triazol-2-yl)-1,4-dihydrothieno[2,3-d]pyrimidin-3(2H)-yl)-N-((1-methylcyclopropyl)sulfonyl)cyclopropane-1-carboxamide]: the pEC50 was 9.00.

`COc1ccccc1[C@H](Cn1c(=O)n([C@@H](C)C(=O)NS(=O)(=O)C(C)(C)C)c(=O)c2c(C)c(-c3ncco3)sc21)O[C@@H]1C[C@H]2CC[C@@H](C1)O2` [Example 17, (S)-2-(1-((R)-2-(((1R,3s,5S)-8-oxabicyclo[3.2.1]octan-3-yl)oxy)-2-(2-methoxyphenyl)ethyl)-5-methyl-6-(oxazol-2-yl)-2,4-dioxo-1,4-dihydrothieno[2,3-d]pyrimidin-3(2H)-yl)-N-(tert-butylsulfonyl)propanamide] gave a pEC50 of 7.39.

Regarding `Cc1c(-c2ncco2)sc2c1c(=O)n(C(C)(C)C(=O)NS(=O)(=O)C(C)(C)C)c(=O)n2C[C@H](O[C@@H]1C[C@H]2CC[C@@H](C1)O2)c1cc(F)ccc1OC(F)F` [Example 8, 2-(1-((R)-2-(((1R,3s,5S)-8-oxabicyclo[3.2.1]octan-3-yl)oxy)-2-(2-(difluoromethoxy)-5-fluorophenyl)ethyl)-5-methyl-6-(oxazol-2-yl)-2,4-dioxo-1,4-dihydrothieno[2,3-d]pyrimidin-3(2H)-yl)-N-(tert-butylsulfonyl)-2-methylpropanamide], the pEC50 was 8.15.

In the case of `COc1ccccc1[C@H](Cn1c(=O)n([C@H](C)C(=O)NS(=O)(=O)C2(C)CC2)c(=O)c2c(C)c(-c3ncco3)sc21)O[C@@H]1C[C@H]2CC[C@@H](C1)O2` [Example 18, (R)-2-(1-((R)-2-(((1R,3s,5S)-8-oxabicyclo[3.2.1]octan-3-yl)oxy)-2-(2-methoxyphenyl)ethyl)-5-methyl-6-(oxazol-2-yl)-2,4-dioxo-1,4-dihydrothieno[2,3-d]pyrimidin-3(2H)-yl)-N-((1-methylcyclopropyl)sulfonyl)propanamide], the pEC50 is 9.00.

In turn, `COc1ccc(F)cc1[C@H](Cn1c(=O)n(C(C)(C)C(=O)NS(=O)(=O)C2(C)CC2)c(=O)c2c(C)c(-c3ncsn3)sc21)O[C@@H]1C[C@H]2CC[C@@H](C1)O2` [Example 31, 2-(1-((R)-2-(((1R,3s,5S)-8-oxabicyclo[3.2.1]octan-3-yl)oxy)-2-(5-fluoro-2-methoxyphenyl)ethyl)-5-methyl-2,4-dioxo-6-(1,2,4-thiadiazol-3-yl)-1,4-dihydrothieno[2,3-d]pyrimidin-3(2H)-yl)-2-methyl-N-((1-methylcyclopropyl)sulfonyl)propanamide] had a pEC50 of 8.85.

On to `Cc1c(-n2nccn2)sc2c1c(=O)n(C1(C(=O)NS(=O)(=O)C(C)(C)C)CC1)c(=O)n2C[C@H](O[C@@H]1C[C@H]2CC[C@@H](C1)O2)c1ccccc1OC(F)F` [Example 27, 1-(1-((R)-2-(((1R,3s,5S)-8-oxabicyclo[3.2.1]octan-3-yl)oxy)-2-(2-(difluoromethoxy)phenyl)ethyl)-5-methyl-2,4-dioxo-6-(2H-1,2,3-triazol-2-yl)-1,4-dihydrothieno[2,3-d]pyrimidin-3(2H)-yl)-N-(tert-butylsulfonyl)cyclopropane-1-carboxamide], for which the negative-log EC50 (pEC50) is 6.44.

As for `COCCOc1ccccc1[C@H](Cn1c(=O)n(C2(C(=O)NS(=O)(=O)C3(C)CC3)CC2)c(=O)c2c(C)c(-n3nccn3)sc21)O[C@@H]1C[C@H]2CC[C@@H](C1)O2` [Example 30, 1-(1-((R)-2-(((1R,3s,5S)-8-oxabicyclo[3.2.1]octan-3-yl)oxy)-2-(2-(2-methoxyethoxy)phenyl)ethyl)-5-methyl-2,4-dioxo-6-(2H-1,2,3-triazol-2-yl)-1,4-dihydrothieno[2,3-d]pyrimidin-3(2H)-yl)-N-((1-methylcyclopropyl)sulfonyl)cyclopropane-1-carboxamide], the pEC50 was 7.48.
